Data as given in ChEMBL document CHEMBL1201862, “PubChem BioAssay data set” (2004).
Activity calls are given as the source filed them.

Key:
Protein RecA = target: T1, Protein RecA (Mycobacterium tuberculosis, UniProt P9WHJ3); assay: Fluorescence Cell-Free Homogeneous Dose Retest to Identify Inhibitors of RecA-Intein Splicing Activity. [Related pubchem assays (depositor defined):AID2097, AID2223, AID489010, AID492950]; format: functional
T1 sequence (P9WHJ3 whole entry): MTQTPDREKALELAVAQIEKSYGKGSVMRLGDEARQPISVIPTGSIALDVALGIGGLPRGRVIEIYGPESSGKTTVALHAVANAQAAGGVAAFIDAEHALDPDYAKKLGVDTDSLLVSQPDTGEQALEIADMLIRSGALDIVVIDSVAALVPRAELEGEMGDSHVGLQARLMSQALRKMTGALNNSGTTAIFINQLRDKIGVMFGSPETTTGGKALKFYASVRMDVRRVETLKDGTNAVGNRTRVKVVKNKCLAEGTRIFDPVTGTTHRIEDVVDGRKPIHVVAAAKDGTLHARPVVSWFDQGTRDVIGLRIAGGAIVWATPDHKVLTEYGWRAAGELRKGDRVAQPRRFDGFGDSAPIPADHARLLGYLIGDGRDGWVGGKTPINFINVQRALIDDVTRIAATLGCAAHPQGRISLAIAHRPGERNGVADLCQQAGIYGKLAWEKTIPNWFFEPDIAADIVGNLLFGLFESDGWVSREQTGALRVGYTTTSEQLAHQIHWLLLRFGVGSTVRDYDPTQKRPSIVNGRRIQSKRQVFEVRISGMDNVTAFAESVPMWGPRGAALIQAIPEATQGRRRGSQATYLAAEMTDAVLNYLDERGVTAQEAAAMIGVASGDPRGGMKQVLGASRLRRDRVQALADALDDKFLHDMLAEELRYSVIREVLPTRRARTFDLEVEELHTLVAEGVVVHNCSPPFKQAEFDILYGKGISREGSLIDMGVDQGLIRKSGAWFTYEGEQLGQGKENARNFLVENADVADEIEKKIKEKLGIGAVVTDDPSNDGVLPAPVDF

[1] = target: T2, Kappa-type opioid receptor (Homo sapiens, UniProt P41145); format: functional
[2] = target: T3, Replicative DNA helicase DnaB (Mycobacterium tuberculosis, UniProt P9WMR3); assay: DnaB intein splicing inhibitors, dose response, biochemical, cell-free fluorescence (AID 449749); format: functional
T3 sequence (P9WMR3 whole entry): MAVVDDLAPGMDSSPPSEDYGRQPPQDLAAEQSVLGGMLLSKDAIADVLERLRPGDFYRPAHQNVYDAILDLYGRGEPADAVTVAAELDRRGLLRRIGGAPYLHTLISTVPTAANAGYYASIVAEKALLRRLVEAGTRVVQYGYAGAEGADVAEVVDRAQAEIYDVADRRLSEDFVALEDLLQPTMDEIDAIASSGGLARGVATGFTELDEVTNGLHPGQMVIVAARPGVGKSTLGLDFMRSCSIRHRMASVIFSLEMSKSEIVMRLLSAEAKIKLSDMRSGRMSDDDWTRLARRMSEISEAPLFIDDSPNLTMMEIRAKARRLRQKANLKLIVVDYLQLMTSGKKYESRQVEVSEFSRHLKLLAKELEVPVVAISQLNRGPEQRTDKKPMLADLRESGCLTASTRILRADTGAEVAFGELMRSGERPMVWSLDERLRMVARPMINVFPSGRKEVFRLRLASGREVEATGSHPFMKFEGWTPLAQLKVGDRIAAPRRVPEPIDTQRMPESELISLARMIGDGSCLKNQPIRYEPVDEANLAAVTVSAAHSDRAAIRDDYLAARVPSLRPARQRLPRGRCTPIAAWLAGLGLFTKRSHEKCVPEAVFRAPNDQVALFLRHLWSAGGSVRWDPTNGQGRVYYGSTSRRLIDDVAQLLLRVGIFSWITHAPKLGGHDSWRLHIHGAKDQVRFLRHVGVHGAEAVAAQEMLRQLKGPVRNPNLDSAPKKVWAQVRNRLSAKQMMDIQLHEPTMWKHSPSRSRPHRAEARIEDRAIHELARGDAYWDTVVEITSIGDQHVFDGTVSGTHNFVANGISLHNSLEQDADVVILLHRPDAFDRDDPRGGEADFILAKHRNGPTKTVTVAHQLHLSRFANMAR

Mu-type opioid receptor = Mu-type opioid receptor (Homo sapiens, UniProt P35372); assay: HTS Image-Based Screen for Agonists of the MOR Receptor. [Related pubchem assays (depositor defined):AID1777, AID1785, AID1786, AID2133]; format: functional;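 further: imaging of beta-arrestin GFP recruitment into spots after receptor activation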
Streptokinase A = target: T4, Streptokinase A (Streptococcus pyogenes serotype M1, UniProt P10520); assay: S. pyogenes streptokinase expression inhibitors, potency, dose response, plasminogen activation absorbance, OD405 (AID 1914); format: functional, Streptococcus pyogenes M1 GAS;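 further: secreted streptokinase activity via plasminogen activation per viability signal from cell pellet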
T4 sequence (P10520 whole entry): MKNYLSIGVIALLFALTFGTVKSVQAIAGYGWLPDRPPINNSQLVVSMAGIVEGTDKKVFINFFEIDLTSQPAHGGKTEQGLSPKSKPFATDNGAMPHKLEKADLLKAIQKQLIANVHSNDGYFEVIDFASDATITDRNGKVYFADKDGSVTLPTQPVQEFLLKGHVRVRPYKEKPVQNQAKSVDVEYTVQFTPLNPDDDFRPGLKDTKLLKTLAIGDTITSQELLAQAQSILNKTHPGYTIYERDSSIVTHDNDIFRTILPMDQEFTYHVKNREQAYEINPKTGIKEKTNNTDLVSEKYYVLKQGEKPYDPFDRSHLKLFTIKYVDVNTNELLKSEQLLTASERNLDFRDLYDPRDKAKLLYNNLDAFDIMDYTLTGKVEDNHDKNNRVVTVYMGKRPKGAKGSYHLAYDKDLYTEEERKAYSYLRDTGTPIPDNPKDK

[3] = target: T5, Delta-type opioid receptor (Homo sapiens, UniProt P41143); assay: HTS Image-Based Screen for Antagonists of the DOR Receptor. [Related pubchem assays (depositor defined):AID1777, AID1785, AID1786, AID2133]; format: functional
CHO = assay: cytotoxicity in TLR9-MyD88 CHO cells, dose response, cytotoxicity control for TLR9-MyD88 binding inhibitor project, cell-based, luminescence (AID 588339); format: functional, hamster; settings: Cricetulus griseus;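 further: CHO cells stably coexpressing TLR9 and MyD88 fusions from primary screen; compound exposure lasted 48 hours before viability readout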
Fatty acid synthase [4] = target: T6, Fatty acid synthase (Homo sapiens, UniProt P49327); assay: FAS thioesterase domain inhibitors, dose response, biochemical, endpoint fluorescence intensity, uHTS hits (AID 624327); format: functional;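 further: fluorescence from hydrolysis of an O-methyl fluorescein acyl ester substrate by the enzyme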
[5] = target: Bifunctional protein GlmU (Mycobacterium tuberculosis, UniProt P9WMN3); assay: Inhibitors of Mycobacterial Glucosamine-1-phosphate acetyl transferase (GlmU). Secondary screen.; set-up: species or system Mycobacterium tuberculosis H37Rv
Beta-galactosidase = Beta-galactosidase (Escherichia coli, UniProt Q8VNN2); format: functional
[6] = target: T2, Kappa-type opioid receptor; format: functional; remark: listed apart in the source
Beta Lactamase = Beta Lactamase (Pseudomonas aeruginosa, UniProt Q932Y6); assay: beta-lactamase reporter inhibitor potency, dose response, artefact control for TLR9-MyD88 binding inhibitor project, BLA reporter cells, FRET fluorescence (AID 588341); format: cell-based;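 further: cell based assay in CHO-K1 cells stably expressing beta-lactamase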
Streptococcus = assay: Group A Streptococcus viability loss, dose response, counter-screen for streptokinase expression inhibitor project, luminescence, BacTiterGlo (AID 1915); format: functional, organism-based;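 further: potency for reduction of bacterial viability or growth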
[7] = target: Induced myeloid leukemia cell differentiation protein Mcl-1 (Homo sapiens, UniProt Q07820); format: functional
[8] = system: Streptococcus sp. 'group A'; assay: growth inhibition of control SK(-) GAS strain, dose response, counter-screen for streptokinase expression inhibitor project, luminescence, kanamycin, BacTiterGlo, confirmation (AID 1900); format: functional, organism-based
Fatty acid synthase [9] = target: T6, Fatty acid synthase; assay: FAS thioesterase domain inhibitors, dose response, biochemical, kinetic fluorescence intensity (AID 624326); format: functional;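 further: rate of fluorescence rise from hydrolysis of a fluorogenic O-methyl fluorescein ester substrate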
[10] = target: T5, Delta-type opioid receptor; assay: HTS Image-Based Screen for Agonists of the DOR Receptor. [Related pubchem assays (depositor defined):AID1777, AID1786, AID2133]; format: functional
[11] = target: T7, Ubiquitin-conjugating enzyme E2 N (Homo sapiens, UniProt P61088); format: functional
T7 sequence (P61088 whole entry): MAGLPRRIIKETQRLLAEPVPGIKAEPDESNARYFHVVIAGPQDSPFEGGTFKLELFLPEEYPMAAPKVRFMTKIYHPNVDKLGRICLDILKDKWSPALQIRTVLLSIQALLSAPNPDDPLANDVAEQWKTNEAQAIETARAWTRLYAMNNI

Insulin-degrading enzyme [12] = target: T8, Insulin-degrading enzyme (Homo sapiens, UniProt P14735); assay: activators of recombinant IDE enzyme, dose response, counter-screen for IDE activator project, biochemical, fluorescence polarization (AID 588681)
T8 sequence (P14735 whole entry): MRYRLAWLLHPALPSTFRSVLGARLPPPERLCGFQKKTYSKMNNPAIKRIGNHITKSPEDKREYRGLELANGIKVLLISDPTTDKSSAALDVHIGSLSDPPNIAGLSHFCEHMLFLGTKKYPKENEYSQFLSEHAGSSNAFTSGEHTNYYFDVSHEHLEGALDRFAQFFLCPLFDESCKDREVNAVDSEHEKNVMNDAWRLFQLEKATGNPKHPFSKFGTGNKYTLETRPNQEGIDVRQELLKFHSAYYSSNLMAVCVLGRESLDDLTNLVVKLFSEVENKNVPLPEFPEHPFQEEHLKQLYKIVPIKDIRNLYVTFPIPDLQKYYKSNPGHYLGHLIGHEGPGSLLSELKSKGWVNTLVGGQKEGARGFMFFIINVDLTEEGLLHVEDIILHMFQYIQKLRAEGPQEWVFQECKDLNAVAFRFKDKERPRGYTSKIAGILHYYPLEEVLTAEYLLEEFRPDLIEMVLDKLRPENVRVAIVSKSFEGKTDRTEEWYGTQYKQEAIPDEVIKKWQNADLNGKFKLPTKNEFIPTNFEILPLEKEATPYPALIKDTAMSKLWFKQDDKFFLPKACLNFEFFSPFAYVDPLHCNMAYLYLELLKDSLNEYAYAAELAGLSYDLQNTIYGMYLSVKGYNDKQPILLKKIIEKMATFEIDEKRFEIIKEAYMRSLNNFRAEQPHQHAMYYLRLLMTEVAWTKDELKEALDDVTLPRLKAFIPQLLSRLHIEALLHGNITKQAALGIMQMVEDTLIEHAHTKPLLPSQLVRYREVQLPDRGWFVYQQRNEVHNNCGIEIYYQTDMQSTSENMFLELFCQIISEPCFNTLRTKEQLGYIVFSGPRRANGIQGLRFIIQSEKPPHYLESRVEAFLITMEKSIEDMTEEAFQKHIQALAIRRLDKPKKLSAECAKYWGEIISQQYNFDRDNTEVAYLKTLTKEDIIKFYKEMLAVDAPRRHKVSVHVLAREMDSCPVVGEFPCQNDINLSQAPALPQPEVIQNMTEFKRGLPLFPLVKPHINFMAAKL

[13] = target: T7, Ubiquitin-conjugating enzyme E2 N; format: functional; remark: listed apart in the source
Insulin-degrading enzyme [14] = target: T8, Insulin-degrading enzyme; assay: activators of endogenous IDE in HEK cells, dose response, cell-based, fluorescence polarization (AID 588439); format: functional
HEK293 [15] = assay: optical interference in Abeta FP readout, dose response, artefact control for IDE activator project, biochemical, fluorescence polarization (AID 588442); format: functional, cell-based; settings: Homo sapiens
Bcl-2-related protein A1 = target: T9, Bcl-2-related protein A1 (Mus musculus, UniProt Q07440); format: functional;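 further: confirmatory dose–response counterscreen on Bfl-1, used to check hits from a UBC13 polyubiquitin inhibitor campaign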
T9 sequence (Q07440 whole entry): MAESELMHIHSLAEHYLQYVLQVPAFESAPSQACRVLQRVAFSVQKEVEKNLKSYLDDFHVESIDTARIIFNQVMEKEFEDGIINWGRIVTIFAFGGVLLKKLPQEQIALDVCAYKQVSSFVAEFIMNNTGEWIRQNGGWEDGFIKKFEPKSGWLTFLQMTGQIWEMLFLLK

HEK293 [16] = assay: HEK cell cytotoxicity by LDH release, dose response, cytotoxicity control for IDE activator project, fluorescence, HEK cells (AID 588440); format: functional, cell-based; settings: Homo sapiens;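 further: cytotoxicity by LDH release measuring loss of membrane integrity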

T2 sequence (P41145 whole entry): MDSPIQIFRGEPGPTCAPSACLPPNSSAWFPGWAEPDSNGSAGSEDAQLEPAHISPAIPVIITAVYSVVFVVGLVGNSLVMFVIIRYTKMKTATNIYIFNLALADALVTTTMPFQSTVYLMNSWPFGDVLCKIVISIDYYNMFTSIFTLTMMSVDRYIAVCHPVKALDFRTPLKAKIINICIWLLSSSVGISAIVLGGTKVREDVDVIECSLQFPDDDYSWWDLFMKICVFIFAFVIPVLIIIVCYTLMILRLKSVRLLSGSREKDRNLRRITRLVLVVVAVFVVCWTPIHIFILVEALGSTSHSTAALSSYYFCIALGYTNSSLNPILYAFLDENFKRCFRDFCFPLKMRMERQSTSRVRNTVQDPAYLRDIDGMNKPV
T5 sequence (P41143 whole entry, the tested form may be a part): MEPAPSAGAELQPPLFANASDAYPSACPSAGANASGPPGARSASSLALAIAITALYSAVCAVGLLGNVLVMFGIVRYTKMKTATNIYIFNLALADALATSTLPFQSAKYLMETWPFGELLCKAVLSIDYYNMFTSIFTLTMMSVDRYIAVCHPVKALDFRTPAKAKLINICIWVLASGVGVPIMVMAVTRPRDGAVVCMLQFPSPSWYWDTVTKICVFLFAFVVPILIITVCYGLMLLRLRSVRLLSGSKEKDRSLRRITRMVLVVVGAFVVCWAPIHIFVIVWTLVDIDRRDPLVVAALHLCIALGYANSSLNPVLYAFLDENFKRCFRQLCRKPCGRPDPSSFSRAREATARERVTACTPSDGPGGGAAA
T6 sequence (P49327 whole entry, the tested form may be a part): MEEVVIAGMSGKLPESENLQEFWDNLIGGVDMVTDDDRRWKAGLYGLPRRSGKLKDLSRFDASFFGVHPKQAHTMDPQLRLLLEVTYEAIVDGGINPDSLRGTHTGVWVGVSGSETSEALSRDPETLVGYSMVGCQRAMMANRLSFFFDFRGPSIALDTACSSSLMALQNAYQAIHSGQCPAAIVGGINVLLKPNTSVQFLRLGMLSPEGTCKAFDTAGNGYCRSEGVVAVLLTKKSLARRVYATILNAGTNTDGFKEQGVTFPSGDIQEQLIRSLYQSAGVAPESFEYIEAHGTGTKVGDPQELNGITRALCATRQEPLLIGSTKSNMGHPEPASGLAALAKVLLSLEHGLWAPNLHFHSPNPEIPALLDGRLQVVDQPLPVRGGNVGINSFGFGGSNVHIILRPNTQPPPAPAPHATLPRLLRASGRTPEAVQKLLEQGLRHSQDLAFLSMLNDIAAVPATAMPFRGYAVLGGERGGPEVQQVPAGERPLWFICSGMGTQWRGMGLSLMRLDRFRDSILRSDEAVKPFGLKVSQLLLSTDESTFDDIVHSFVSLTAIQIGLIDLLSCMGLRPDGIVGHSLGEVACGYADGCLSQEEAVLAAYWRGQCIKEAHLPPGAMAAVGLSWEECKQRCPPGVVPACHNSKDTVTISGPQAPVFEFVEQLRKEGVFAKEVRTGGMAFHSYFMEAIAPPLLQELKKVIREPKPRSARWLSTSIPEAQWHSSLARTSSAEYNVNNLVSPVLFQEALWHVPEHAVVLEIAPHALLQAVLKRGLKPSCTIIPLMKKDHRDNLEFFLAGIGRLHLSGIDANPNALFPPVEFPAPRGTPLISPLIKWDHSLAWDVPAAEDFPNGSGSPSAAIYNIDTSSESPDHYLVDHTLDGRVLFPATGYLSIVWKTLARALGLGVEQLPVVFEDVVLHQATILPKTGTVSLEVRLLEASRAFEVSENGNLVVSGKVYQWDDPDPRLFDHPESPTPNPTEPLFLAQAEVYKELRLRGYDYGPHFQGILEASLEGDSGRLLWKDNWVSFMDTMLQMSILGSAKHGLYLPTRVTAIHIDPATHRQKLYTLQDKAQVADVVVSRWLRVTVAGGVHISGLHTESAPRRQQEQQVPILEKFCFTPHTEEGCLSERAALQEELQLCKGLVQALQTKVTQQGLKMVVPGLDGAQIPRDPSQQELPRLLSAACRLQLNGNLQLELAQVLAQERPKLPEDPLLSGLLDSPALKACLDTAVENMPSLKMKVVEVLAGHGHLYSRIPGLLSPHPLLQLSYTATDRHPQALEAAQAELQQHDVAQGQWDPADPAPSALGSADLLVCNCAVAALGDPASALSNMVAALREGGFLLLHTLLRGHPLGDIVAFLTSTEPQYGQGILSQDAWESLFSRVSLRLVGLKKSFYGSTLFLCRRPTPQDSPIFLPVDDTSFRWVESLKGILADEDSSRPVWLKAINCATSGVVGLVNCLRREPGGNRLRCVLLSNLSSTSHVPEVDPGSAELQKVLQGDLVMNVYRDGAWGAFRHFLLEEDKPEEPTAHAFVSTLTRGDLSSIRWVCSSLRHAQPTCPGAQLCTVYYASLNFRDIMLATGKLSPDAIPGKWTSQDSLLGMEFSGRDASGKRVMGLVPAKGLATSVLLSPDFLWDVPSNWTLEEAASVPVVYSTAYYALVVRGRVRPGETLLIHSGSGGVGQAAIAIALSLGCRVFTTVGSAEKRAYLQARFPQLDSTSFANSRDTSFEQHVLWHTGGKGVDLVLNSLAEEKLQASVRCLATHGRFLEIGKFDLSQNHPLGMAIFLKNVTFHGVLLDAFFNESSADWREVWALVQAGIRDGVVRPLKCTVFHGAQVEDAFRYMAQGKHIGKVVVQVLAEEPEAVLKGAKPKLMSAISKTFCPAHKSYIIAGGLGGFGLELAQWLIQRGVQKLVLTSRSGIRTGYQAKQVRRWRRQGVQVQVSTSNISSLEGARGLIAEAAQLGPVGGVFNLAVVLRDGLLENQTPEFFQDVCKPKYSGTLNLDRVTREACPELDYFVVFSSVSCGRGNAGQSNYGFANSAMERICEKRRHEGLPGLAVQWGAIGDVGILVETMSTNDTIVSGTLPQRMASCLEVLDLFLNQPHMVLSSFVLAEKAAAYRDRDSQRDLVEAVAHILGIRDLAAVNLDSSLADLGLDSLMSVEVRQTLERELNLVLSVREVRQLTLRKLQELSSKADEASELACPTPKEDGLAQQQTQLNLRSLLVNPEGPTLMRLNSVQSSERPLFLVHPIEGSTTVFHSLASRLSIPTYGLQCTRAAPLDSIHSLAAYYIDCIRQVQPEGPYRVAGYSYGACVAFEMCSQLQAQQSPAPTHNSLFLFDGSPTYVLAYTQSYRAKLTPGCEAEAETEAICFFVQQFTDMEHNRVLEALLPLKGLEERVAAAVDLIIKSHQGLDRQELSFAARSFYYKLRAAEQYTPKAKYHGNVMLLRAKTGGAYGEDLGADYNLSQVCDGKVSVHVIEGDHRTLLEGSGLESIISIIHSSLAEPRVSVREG
Chain of Beta-galactosidase (Q8VNN2 whole entry): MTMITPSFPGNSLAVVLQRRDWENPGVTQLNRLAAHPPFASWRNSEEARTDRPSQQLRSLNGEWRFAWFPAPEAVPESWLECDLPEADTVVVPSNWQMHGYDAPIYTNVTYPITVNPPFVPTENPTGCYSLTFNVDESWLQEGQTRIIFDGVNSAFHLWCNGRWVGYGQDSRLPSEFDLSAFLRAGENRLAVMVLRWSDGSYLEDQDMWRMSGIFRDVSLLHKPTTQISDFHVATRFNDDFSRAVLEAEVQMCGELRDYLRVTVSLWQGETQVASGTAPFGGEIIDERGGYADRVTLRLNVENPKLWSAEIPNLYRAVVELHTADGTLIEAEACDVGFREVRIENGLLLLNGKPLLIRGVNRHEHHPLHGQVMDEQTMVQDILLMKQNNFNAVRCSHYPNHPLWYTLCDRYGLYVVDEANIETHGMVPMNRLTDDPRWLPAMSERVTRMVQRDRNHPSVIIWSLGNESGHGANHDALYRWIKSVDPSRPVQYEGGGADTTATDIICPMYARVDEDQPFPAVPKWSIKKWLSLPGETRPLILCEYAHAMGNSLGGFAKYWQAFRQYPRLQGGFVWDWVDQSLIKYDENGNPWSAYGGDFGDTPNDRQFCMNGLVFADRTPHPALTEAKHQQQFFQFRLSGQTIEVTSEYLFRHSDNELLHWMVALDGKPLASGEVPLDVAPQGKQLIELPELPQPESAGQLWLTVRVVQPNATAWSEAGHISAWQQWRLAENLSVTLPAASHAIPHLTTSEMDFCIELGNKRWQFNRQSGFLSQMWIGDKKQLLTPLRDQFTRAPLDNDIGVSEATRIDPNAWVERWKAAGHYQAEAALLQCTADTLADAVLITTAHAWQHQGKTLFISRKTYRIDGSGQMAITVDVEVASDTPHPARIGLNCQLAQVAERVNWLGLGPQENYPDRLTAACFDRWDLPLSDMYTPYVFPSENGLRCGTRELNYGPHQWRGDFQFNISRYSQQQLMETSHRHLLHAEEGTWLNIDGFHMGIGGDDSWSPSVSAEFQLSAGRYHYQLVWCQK
Chain of Beta Lactamase (Q932Y6 whole entry): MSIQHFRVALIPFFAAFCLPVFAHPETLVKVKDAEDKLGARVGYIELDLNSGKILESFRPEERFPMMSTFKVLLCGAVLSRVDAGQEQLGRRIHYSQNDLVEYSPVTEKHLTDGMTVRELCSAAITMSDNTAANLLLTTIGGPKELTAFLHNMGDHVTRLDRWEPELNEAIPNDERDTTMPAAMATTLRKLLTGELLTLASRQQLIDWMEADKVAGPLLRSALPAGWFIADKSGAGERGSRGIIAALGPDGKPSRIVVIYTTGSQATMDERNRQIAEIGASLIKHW
Chain of Bifunctional protein GlmU (P9WMN3 whole entry): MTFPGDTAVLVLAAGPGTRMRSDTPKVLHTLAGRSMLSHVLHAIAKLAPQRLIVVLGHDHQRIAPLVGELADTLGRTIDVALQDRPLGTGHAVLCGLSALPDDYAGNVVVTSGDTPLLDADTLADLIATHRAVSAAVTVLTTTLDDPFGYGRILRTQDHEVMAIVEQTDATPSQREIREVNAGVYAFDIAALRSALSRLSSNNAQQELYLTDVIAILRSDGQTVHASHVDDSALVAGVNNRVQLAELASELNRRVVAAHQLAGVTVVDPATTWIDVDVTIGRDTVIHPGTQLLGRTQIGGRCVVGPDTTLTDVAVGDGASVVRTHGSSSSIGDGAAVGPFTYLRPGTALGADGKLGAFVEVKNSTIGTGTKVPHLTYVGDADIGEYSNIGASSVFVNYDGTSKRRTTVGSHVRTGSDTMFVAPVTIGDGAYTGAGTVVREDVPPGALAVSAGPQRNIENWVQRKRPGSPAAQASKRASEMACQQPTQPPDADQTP

Cc1nnc(Sc2cc(NCCCO)c([N+](=O)[O-])c3nonc23)s1
active: EC50 (Protein RecA) 1.85 µM | IC50 [1] 6.15 µM | AC50 [2] 2.07 µM | IC50 (CHO) 3.37 µM | IC50 (Fatty acid synthase [4]) 3.78 µM | IC50 [5] 77.8 µM | EC50 (Streptococcus) 7.62 µM | IC50 [7] 3.11 µM | EC50 [8] 6.33 µM | IC50 (Fatty acid synthase [9]) 3.99 µM
inactive: EC50 (Mu-type opioid receptor) > 32 µM | IC50 [3] > 32 µM | EC50 (Beta-galactosidase) > 31.5 µM | IC50 (Beta Lactamase) 10.9 µM | EC50 [10] > 32 µM
> 32 µM: IC50 [6]
inconclusive: EC50 (Streptokinase A) 21.2 µM

C#CCOCCOCCOCCNc1nc(N2CCN(C(=O)CCCCCCCCCCNC(=O)[C@H](CCCCN)n3cc(C)nn3)CC2)nc(N2CCN(C(=O)CCCCCCCCCCNC(=O)[C@H](CO)n3cc(CCCSC)nn3)CC2)n1
active: IC50 [11] 4.05 µM | EC50 (Insulin-degrading enzyme [12]) > 6.08 µM | IC50 [13] 6.96 µM | IC50 (HEK293 [16]) 9.88 µM
inactive: EC50 (Insulin-degrading enzyme [14]) > 54.7 µM | EC50 (HEK293 [15]) > 55.9 µM | IC50 (Bcl-2-related protein A1) > 20 µM
